Test results: paper PMC7178208 (International Journal of Molecular Sciences, 2020)
≈ marks a conversion by molar mass, not a printed value. Peptide text beside a SMILES is read from it. * marks the point of attachment. FITC = O=C1OC2(c3ccc(O)cc3Oc3cc(O)ccc32)c2ccc(NC(=S)*)cc21; Ahx = NCCCCCC(=O)O

How the values were obtained:
C. albicans [1] = assay: Scanning electron microscopy, cell morphology; type: cell-based, Candida albicans; conditions: 0.25 mM P-113, 10^7 CFU/mL, SD broth, 28 °C, 1-6 h
Description: Time-course morphological studies of C. albicans were performed by scanning electron microscopy (SEM). Overnight cultures of C. albicans were sub-cultured and grown in SD broth. Then, 10^7 CFU/mL of C. albicans was treated with 0.25 mM P-113 in SD broth at 28 °C. Samples were collected following 1, 2, 3, 4, 5, and 6 h of incubation. Another experiment was performed to observe the morphological changes caused over in a short time caused by Bip-P-113 and Dip-P-113. Briefly, 10^7 CFU/mL of C. albicans in SD broth was treated for 5 min at 28 °C with 50 μM P-113, Bip-P-113, and Dip-P-113. After harvest, cells were resuspended in fixation solution (2.5% glutaraldehyde in 20 mM phosphate buffer pH 7.4) and then placed on Thermanox substrate-coated cover slips at 4 °C for 12 h. The cover slips were carefully washed three times with 20 mM phosphate buffer (pH 7.4), followed by incubation in post-fixation solution (1% OsO4 in 20 mM phosphate buffer pH 7.4) at room temperature for an hour. After being washed three times with 20 mM phosphate buffer (pH 7.4), the cover slips were air-dried for an hour by dehydration with a graded series of ethanol. Samples were gold-coated and observed under an S-4700 field-emission (FE)-SEM (Hitachi, Ltd., Tokyo, Japan) at an acceleration voltage of 5 kV.

C. albicans [2] = assay: Confocal laser microscopy, localization of FITC peptides; type: cell-based, Candida albicans; conditions: 50 μM FITC-conjugated peptide, 10^7 CFU/mL, SD broth, 28 °C, 5 min
Description: Firstly, 10^7 CFU/mL of C. albicans was incubated with 0.25 mM FITC P-113 and 0.25 mM FITC alone (as a negative control) in SD broth at 28 °C for 1, 2, 3, 4, 5, and 6 h. Another experiment was performed to observe the short-term localization of Bip-P-113 and Dip-P-113 peptides. Briefly, log-phase C. albicans cultures were resuspended to a cell density of 10^7 CFU/mL in SD broth and treated for 5 min at 28 °C with 50 μM FITC-conjugated P-113, Bip-P-113, and Dip-P-113. After centrifugation, the cells were washed three times with 20 mM phosphate buffer (pH 7.4) to remove nonbinding peptides and fixed with 4% (w/v) paraformaldehyde in 20 mM phosphate buffer (pH 7.4) at room temperature for 20 min. Following fixation, the cells were centrifuged at 3500× g for 5 min, resuspended in phosphate buffer, and loaded onto a glass slide with a 1.4% solid agarose bed. The images were taken with a confocal laser scanning microscope (LSM 510 META, Carl Zeiss, Jena, Germany) equipped with a 40× C-Apochromat water-immersion objective lens (Carl Zeiss, Jena, Germany).

Candida albicans = type: cell-based; conditions: 24 h, 1
Description: Figure 7 Time killing activity of FITC-labeled P-113 peptide and its FITC-labeled derivatives against Candida albicans. Cells were treated with 1× MIC of (a) P-113 (black circle), FITC-labeled N-terminal truncated P-113 (black square), FITC-labeled C-terminal truncated P-113 (black triangle), and (b) treated with FITC-labeled Bip-P-113 (white square), and FITC-labeled Dip-P-113 (white triangle). Killed cells (%) = (cell number in peptide-free control − cell number in sample)/(cell number in peptide-free control) × 100. Error bars represent the standard errors of the mean.
C. albicans were cultivated onto Sabouraud dextrose agar plates overnight and sub-cultured twice before time killing assays. A total of 5 × 10^4 CFU/mL of C. albicans cells were treated with 1× MIC of FITC-conjugated P-113 peptides and their derivatives in SD broth for 10, 20, 30, 60, and 120 min at 28 °C. After that time, serial dilutions (1:10) of the incubation mixtures were added onto SD agar. The numbers of CFU were counted after 24 h of incubation at 28 °C. The percentage of killed cells was calculated by comparison with the number of cells in a control sample incubated without P-113 peptide. The assays were performed in triplicate.

[3] = tested on: living C. albicans cells (secreted aspartic proteinases, Saps); assay: Degradation of P-113 by living C. albicans cells (NMR); type: in vitro ADME, Candida albicans
Description: For living cell NMR experiments, the interaction between ^15N-labeled P-113 peptides and C. albicans was monitored by 2D heteronuclear single quantum coherence (HSQC) spectroscopy. The peptides were dissolved in SD broth for a total volume of 500 μL at a 0.275 mM concentration. After centrifugation, 10^7 CFU/mL of cells were resuspended in 50 μL of SD broth and then titrated into the peptide solution. The ^15N-^1H HSQC spectra were recorded on a Bruker Avance 600-MHz NMR spectrometer in the States-TPPI mode for quadrature detection at 301 K. The ^1H and ^15N carriers were placed at 4.699 and 120 ppm, respectively. After titration, 2D HSQC spectra were collected every hour during 24 h of incubation at 301 K. All spectra were processed with NMRPipe and analyzed using the Sparky program (T.D. Goddard and D.G. Kneller, SPARKY3, University of California, San Francisco, CA, USA).
To obtain sequence assignment information, 3D spectra, including those from HNCA, HN(CO)CA, HNCACB, HN(CO)CACB, HN(CA)CO, and HNCO experiments, were recorded on a Bruker Avance 600-MHz NMR spectrometer at 301 K. The ^13C carriers were placed at 48 ppm for C^α, at 38 ppm for ^13C^α/β and at 174 ppm for C′. All spectra were processed with NMRPipe and analyzed using the Sparky program.
To observe the correlation of amide nitrogen (^15Ni) to the carbon (^13C′) spin in the proceeding residue (^13C′i−1), 2D CON experiments were performed on Bruker Avance 850-MHz NMR spectrometer equipped with a triple-resonance cryogenic probe. The spectra comparing ^15N-, ^13C-labeled P-113 in SD broth and in a C. albicans titration were recorded with the center frequencies at 120 ppm (^15N) and 174 ppm (^13C), respectively. All spectra were processed with NMRPipe and analyzed using the Sparky program.
The inhibition of P-113 degradation by C. albicans was determined using living cell NMR experiments as described above in the presence of 0.5 mM of the aspartic protease inhibitor pepstatin A.

[4] = tested on: C. albicans American Type Culture Collection (ATCC) 10,231; type: cell-based, Candida albicans; conditions: American Type Culture Collection (ATCC) 10,231, 24 h
Description: C. albicans (ATCC 10231) from the American Type Culture Collection (Manassas, VA, USA) was cultured at 28 °C on SD agar plates.
To determine the minimum inhibitory concentration (MIC) values of the FITC conjugated-P-113 peptides and their derivatives, a broth microdilution assay was used. Overnight-grown cultures of C. albicans in SD broth were sub-cultured for several hours and subsequently diluted to a final concentration of 5 × 10^4 CFU/mL in Mueller Hinton (MH) broth and LYM broth. A total of 100 μL of diluted microbe was transferred into each well of a 96-well plate, into which a 1 μL dilution series of peptides in sterile water (ranging from 50 to 0.78 μg/mL) was previously added. After incubation for 24 h at 28 ℃, the MIC value of P-113 peptides was determined as the lowest concentration at which no change in optical density was observed. The experiment was conducted three times, and average values were reported.

[5] = 0.01% P-113 (0.07 μM) in a mouthrinse treatment, clinical trial; cited from earlier work

C[C@H](NC(=O)CCCCCNC(=S)Nc1ccc2c(c1)C(=O)OC21c2ccc(O)cc2Oc2cc(O)ccc21)C(=O)N[C@@H](CCCCN)C(=O)N[C@@H](CCCNC(=N)N)C(=O)N[C@@H](Cc1c[nH]cn1)C(=O)N[C@@H](Cc1c[nH]cn1)C(=O)NCC(=O)N[C@@H](Cc1ccc(O)cc1)C(=O)N[C@@H](CCCCN)C(=O)N[C@@H](CCCNC(=N)N)C(=O)N[C@@H](CCCCN)C(=O)N[C@@H](Cc1ccccc1)C(=O)N[C@@H](Cc1c[nH]cn1)C(N)=O [Peptide P-113] ({FITC-Ahx}-AKRHHGYKRKFH-NH2; N-terminus assumed)
Cell surface morphology (SEM), time course (C. albicans [1]): smooth
Cellular localization of FITC peptide (C. albicans [2]): accumulated in the cytosol
Killed cells (Candida albicans): 87%
Cleavage sites ([3]; 0.25 mM 15N-,13C-labeled P-113, 10^7 CFU/mL C. albicans, SD broth, 301 K, 24 h, 15N-13C CON and 3D backbone assignment): Tyr7-Lys8, Lys8-Arg9, and Lys10-Phe11
Incubation time to near-complete degradation of P-113 ([3]; 0.25 mM 15N-labeled P-113 (no FITC), 10^7 CFU/mL C. albicans, SD broth with 10% D2O, 301 K, 1H-15N HSQC every hour): 5 h
Time at which the first cleavage (Lys10-Phe11) was observed ([3]; 0.25 mM 15N-labeled P-113, 10^7 CFU/mL C. albicans, SD broth, 301 K, new HSQC cross-peaks): 1 h
Changes in 1H-15N HSQC chemical shifts (degradation) in the presence of pepstatin A ([3]; 0.25 mM P-113, 10^7 CFU/mL C. albicans + 0.5 mM pepstatin A, 301 K, 24 h): no noticeable changes
Changes in chemical shifts (degradation) at cell densities below 10^7 cells/mL ([3]; 0.25 mM P-113, C. albicans below 10^7 cells/mL, data not shown): did not show any noticeable changes
MIC, LYM Control [4]: 3.13 µg/mL (≈ 1.51 µM)
MIC, MH Broth [4]: >50 µg/mL
Effect on gingivitis and plaque [5]: reduced the development of gingivitis and plaque
